Values after ≈ are worked out from the molar mass of the structure shown. Read-outs that look alike come from different tables or passages of the source.

Broadly, the EC50 is the concentration needed to bring the measured effect to its halfway point. Usually AC50 stands for the concentration giving half of the maximal activity seen. The term solubility denotes how much of the substance goes into solution per volume. High values mean a readily soluble substance, low ones a poorly soluble substance.

One data set deals with T1, RXFP1 (Homo sapiens, UniProt Q9HBX9).
T1 construct: expressed in transfected cells
T1 sequence (Q9HBX9 1-757): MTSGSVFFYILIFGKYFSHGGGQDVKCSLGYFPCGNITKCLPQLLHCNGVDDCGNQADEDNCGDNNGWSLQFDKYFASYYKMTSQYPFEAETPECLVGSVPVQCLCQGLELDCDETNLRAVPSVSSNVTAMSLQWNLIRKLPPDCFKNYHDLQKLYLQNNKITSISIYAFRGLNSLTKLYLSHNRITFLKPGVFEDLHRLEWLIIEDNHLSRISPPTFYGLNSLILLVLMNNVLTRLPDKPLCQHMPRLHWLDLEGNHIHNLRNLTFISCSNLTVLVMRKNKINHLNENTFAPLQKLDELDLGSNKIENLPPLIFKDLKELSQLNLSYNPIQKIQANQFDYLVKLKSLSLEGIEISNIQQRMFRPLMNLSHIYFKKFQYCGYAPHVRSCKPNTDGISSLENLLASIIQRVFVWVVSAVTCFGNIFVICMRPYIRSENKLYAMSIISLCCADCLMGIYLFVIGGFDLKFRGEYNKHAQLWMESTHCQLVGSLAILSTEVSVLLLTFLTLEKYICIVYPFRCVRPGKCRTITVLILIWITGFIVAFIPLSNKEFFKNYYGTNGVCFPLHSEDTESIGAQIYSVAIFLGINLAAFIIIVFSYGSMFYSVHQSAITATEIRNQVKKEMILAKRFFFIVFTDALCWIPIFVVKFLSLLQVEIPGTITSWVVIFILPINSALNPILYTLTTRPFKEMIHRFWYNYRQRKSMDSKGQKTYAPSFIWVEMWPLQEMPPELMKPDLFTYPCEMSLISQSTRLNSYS
In words: RXFP1 cAMP assay in HEK293-RXFP1 cells (HTRF). Format: cell-based. On the procedure: The RXFP1 receptor couples to the Gs protein, and activation of the receptor results in stimulation of cAMP production. […] The TR-FRET between the K-α-cAMP and cAMP-d2 is disrupted by cAMP in the cell lysates, thus allowing TR-FRET detection in a homogenous format that is suitable for HTS. […] The primary screen was carried out in 1536-well format, however, because of a more robust signal to background ratio, all subsequent follow-up experiments were carried out in 384-well format.
For the primary screen, HEK293-RXFP1 cells were seeded at 2,000 cells/well in 3 μL/well media with a MultiDrop Combi dispenser (Thermo Scientific, Logan, Utah), and allowed to attach overnight at 37° C., 5% CO2. […] The cells were allowed to be stimulated with the compounds for 30 minutes at 37° C., 5% CO2, after which, 1 μL/well of each HTRF detection reagent was dispensed with a BioRAPTR FRD dispenser. The detection reagents were diluted before addition as follows: K-α-cAMP antibody at 1:20 and cAMP-d2 at 1:18 in HTRF lysis buffer (supplied by the assay kit). The plates were incubated for 30 minute at room temperature, and then the signal was read on a ViewLux plate reader (PerkinElmer, Waltham, Mass.).
The assay was run according to the following protocol:
Max Response indicates what the maximal amount of functional activity induced by the compound is, as a percentage of the maximal receptor activation induced by high concentrations of forskolin.
(Changes in cAMP serve as a functional read-out for many G protein-coupled receptors.)

The subject of another data set is cAMP in THP-1 cells. Put plainly: cyclic AMP assay in THP-1 cells. Format: cell-based. The settings on record: Homo sapiens. On the procedure:
This Example illustrates the cyclic AMP assay in THP-1 cells. THP-1 cells were propagated in RPMI-1640 supplemented with 20% FBS, 0.05 mM β-mercaptoethanol, 100 U/mL penicillin and 100 μg/mL streptomycin at 37° C. in 5% CO2. Before assaying for cAMP response, cells were serum starved in RPMI-1640 supplemented with 0.05 mM (3-mercaptoethanol, 100 U/mL penicillin and 100 μg/mL streptomycin at 37° C. in 5% CO2 for 16 hrs. For 384-well format assays, cells were seeded as 30,000 cells/well in 30 μL/well media with a MultiDrop Combi dispenser (Thermo Scientific, Waltham, Mass.). Subsequently, 2 μL/well of 1.6 mM Ro 20-1724 and 160 uM forskolin in PBS+ (DPBS, 1 mM CaCl2, 0.5 mM MgCl2, 0.05% BSA, 0.005% Tween 20) was dispensed using a BioRAPTR FRD dispenser (Beckman Coulter, Brea, Calif.). Immediately after, 0.25 μL/well of compound solutions in DMSO was dispensed with CyBi-well dispenser (CyBio, Jena, Germany). The cells were allowed to be stimulated with compounds for 30 min at 37° C. in 5% CO2, after which, 8 μL/well of each HTRF cAMP HiRange kit (CisBio, Bedford, Mass.) detection reagent was dispensed with a BioRAPTR FRD dispenser. The detection reagents were diluted as such: K-α-cAMP antibody at 1:20 and cAMP-d2 at 1:18 in HTRF lysis buffer (supplied by the assay kit). The plates were incubated for 30 min at room temperature before the signal was read on an Envision plate reader (PerkinElmer, Waltham, Mass.).

The target of another data set is T2, RXFP2 (Homo sapiens, UniProt Q8WXD0).
T2 construct: expressed in transfected cells
Put plainly: RXFP2 cAMP assay in HEK293-RXFP2 cells. Format: cell-based. As to the method: HEK293 cells stably transfected with RXFP2, the cognate receptor for another relaxin family peptide, insulin-like 3, (HEK293-RXFP2) was used to test compound specificity towards the RXFP1 receptor. For this assay, cells were seeded at 8,000 cells/well in 30 µL/well of media with a MultiDrop Combi dispenser (Thermo Scientific), and allowed to attach overnight at 37° C., 5% CO2. Next, 2 µL/well of 1.6 mM Ro 20-1724 solution in PBS+(DPBS, 1 mM CaCl2, 0.5 mM MgCl2, 0.05% BSA, 0.005% Tween 20) were dispensed using a BioRAPTR FRD dispenser (Beckman Coulter, Brea, Calif.), followed addition of 0.25 μL/well of compound solution in DMSO with CyBi-well dispenser (CyBio, Jena, Germany). The cells were allowed to be stimulated with the compounds for 30 minutes at 37° C., 5% CO2, after which, 8 μL/well of each HTRF detection reagent (diluted according to assay kit directions in HTRF lysis buffer) was dispensed with a BioRAPTR FRD dispenser. The plates were incubated for 30 minute at 37° C., and then the signal was read on a ViewLux plate reader (PerkinElmer, Waltham, Mass.).

Another data set can be described thus: PBS solubility. Format: physicochemical. The settings on record: aqueous buffer.
The subject of data set [1] is VEGF gene expression in THP1 cells. In words: VEGF gene expression in THP1 cells (qRT-PCR). It is filed as cell-based, human. The settings on record: 2 hours treatment, normalized to GAPDH. An excerpt:
This example illustrates the activation of VEGF expression in THP1 cells by several embodiments of the disclosure.
THP1 cells (human acute monocytic leukemia cell line) were used to analyze the stimulation of VEGF gene expression after treatment with relaxin or compounds. The VEGF stimulation in these cultured endometrial cells is a well-established property of relaxin.^19 This effect is most probably responsible for the observed angiogenic and neovascularization properties of relaxin in various settings.^20 400,000 THP1 cells (0.4 mL at 1×10^6 cells/mL) in test media (RPMI-1640 without phenol red, 0.5% FBS, Ix Pen/Strep, 0.05 mM of 2-mercaptoethanol) were seeded in each well on a 24-well plate. After 24 hours incubation at 37° C., 5% CO2, relaxin or compounds were added for 2 hours. […] Quantitative real time RT-PCR for VEGF and GAPDH gene expression was done using a Roche LightCycler 480 (Roche Diagnostics, Indianapolis, Ind.) with the appropriate set of primers and probes spanning different exons. The relative fold change in VEGF mRNA level was calculated by the comparative Ct (2-ΔΔ^Ct) method using GAPDH expression for normalization of RNA. […]
On the technique in general: In qPCR the cycle at which signal appears reflects the starting amount.

The mark [2] stands for this setting: percentage of the maximal receptor activation induced by high concentrations of forskolin, Tables 1-7, read-out: Max Response.
Where [3] appears, read: read-out: RXFP1 AC50 (μM, Max. Resp.): Max. Resp.
The mark [4] stands for this setting: 0.5 h, THP-1 cells, cAMP HTRF, with Ro 20-1724 and forskolin, 30 min, read-out: EC50.
The mark [5] stands for this setting: HEK293-RXFP1 cells, cAMP HTRF, with Ro 20-1724, Tables 1-7, read-out: RXFP1 AC50.

T2 sequence (Q8WXD0 whole entry, species assumed): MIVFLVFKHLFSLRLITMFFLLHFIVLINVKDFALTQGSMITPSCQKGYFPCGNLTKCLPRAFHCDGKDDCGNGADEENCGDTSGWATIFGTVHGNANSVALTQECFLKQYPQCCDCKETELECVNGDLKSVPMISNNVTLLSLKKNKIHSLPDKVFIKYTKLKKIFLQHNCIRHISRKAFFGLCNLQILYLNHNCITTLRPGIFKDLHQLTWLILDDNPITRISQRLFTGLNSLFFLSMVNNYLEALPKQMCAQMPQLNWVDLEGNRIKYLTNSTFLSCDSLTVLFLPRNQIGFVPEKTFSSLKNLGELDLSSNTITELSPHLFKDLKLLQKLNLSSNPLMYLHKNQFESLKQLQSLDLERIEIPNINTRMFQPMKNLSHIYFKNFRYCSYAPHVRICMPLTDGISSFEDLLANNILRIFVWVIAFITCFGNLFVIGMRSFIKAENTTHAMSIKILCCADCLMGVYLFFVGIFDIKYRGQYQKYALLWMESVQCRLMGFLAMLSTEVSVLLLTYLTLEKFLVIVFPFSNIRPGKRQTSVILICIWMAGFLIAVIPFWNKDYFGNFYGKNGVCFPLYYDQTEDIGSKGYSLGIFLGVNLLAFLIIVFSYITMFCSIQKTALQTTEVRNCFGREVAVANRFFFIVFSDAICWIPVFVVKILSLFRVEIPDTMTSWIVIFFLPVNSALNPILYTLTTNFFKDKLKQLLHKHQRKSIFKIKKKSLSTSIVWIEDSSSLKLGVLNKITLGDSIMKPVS

On to `O=C(NCc1ccco1)c1ccccc1NC(=O)c1ccccc1NC(=O)C1CCCCC1` [Example 44], for which the Emax at RXFP1 (setting [2]) worked out at 45%.

`O=C(Nc1cccc(S(=O)(=O)C(F)(F)F)c1)c1ccccc1NC(=O)c1ccccc1OCC(F)(F)F` [Example 177]: the Emax at RXFP1 (read-out: Max Response) and at RXFP1 (setting [3]) was 97% throughout.

For the compound `O=C(Nc1ccccc1C(=O)Nc1cccc(C(F)(F)F)c1)c1ccccc1I` [Example 86], the Emax at RXFP1 (setting [2]) came to 80%.

For the compound `O=C(Nc1cccc(C(F)(F)F)c1)c1ccccc1NC(=O)c1ccccc1C(F)(F)F` [Example 70], the Emax on RXFP1 (setting [2]) stood at 70%.

`COc1ccccc1C(=O)Nc1ccccc1C(=O)Nc1cccc(S(=O)(=O)C(F)(F)F)c1` [Compound 159, 2-Methoxy-N-(2-((3-((trifluoromethyl)sulfonyl)phenyl)carbamoyl)phenyl)benzamide]: in the data set with cAMP in THP-1 cells (setting [4]), the EC50 stood at 358 nM.

Turning to `CC(=O)Nc1ccccc1C(=O)Nc1cccc(C(F)(F)F)c1` [Example 47], the Emax on RXFP1 (read-out: Max Response) turned out to be 51%.

Turning to `CCOc1ccccc1-c1nc2ccccc2c(=O)n1-c1cccc(-c2nnn[nH]2)c1` [Example 143], on RXFP1 (setting [2]), the Emax came out at 36%.

Turning to `CCOc1ccccc1C(=O)Nc1ccccc1C(=O)Nc1cccc(C(F)(F)F)c1` [Example 99], the AC50 on RXFP1 (Table 10, read-out: RXFP1 AC50 (μM, Max. Resp.): AC50) was 0.297 µM; on RXFP2 (HEK293-RXFP2 cells, inactive = Maximum response less than 30%, read-out: RXFP2 AC50 (μM, Max. Resp.): AC50), 9.4 µM. Further, the Emax on RXFP1 (setting [2]) was 94%; on RXFP1 (setting [3]) it was 95%; at RXFP2 (0.5 h, read-out: RXFP2 AC50 (μM, Max. Resp.): Max. Resp.), 47%. This compound displayed a solubility in the data set “PBS solubility” of 1.7 µM (≈ 0.728 µg/mL).

For the compound `CCCOc1ccccc1C(=O)Nc1ccccc1C(=O)Nc1cccc(S(=O)(=O)C(F)(F)F)c1` [Example 179, 2-Propoxy-N-(2-((3-((trifluoromethyl)sulfonyl)phenyl)carbamoyl)phenyl)benzamide], the “Relative VEGF gene expression (control = 1.0)” value in data set [1] came out at 1.5. Further, the midpoint of the response with cAMP in THP-1 cells (THP-1, 0.5 h), the EC50, lay at 105 nM.

Regarding `O=C(Nc1ccc(F)cc1)c1ccccc1NC(=O)C1CCCCC1` [Example 13], the Emax at RXFP1 (setting [2]) amounted to 74%.

As to `CCOc1ccccc1C(=O)Nc1ccccc1C(=O)Nc1cccc(C(F)(F)F)c1` [Compound 99, 2-Ethoxy-N-(2-((3-(trifluoromethyl)phenyl)carbamoyl)phenyl)benzamide], the “Relative VEGF gene expression (control = 1.0)” value in data set [1] is 1.9. Further, in the data set with cAMP in THP-1 cells (setting [4]), the EC50 stood at 471 nM.

As to `CCOc1ccccc1C(=O)Nc1ccccc1-c1nc2cc(C(F)(F)F)ccc2[nH]1` [Example 141], on RXFP1 (setting [2]), the Emax amounted to 31%.

In the case of `C/C=C\c1cccc(NC(=O)c2ccccc2NC(=O)c2ccccc2OCC)c1` [Example 169], at RXFP1 (setting [5]), the AC50 turned out to be 1.49 µM. Further, the Emax at RXFP1 (setting [2]) turned out to be 91%.

On to `CCCCOc1ccccc1C(=O)Nc1ccccc1C(=O)Nc1cccc(S(=O)(=O)C(F)(F)F)c1` [Example 180], for which the Emax at RXFP1 (read-out: Max Response) and at RXFP1 (setting [3]) was 98% in each case.

`CCCCOc1ccccc1C(=O)Nc1ccccc1C(=O)Nc1cccc(S(=O)(=O)C(F)(F)F)c1` [Example 180, 2-Butoxy-N-(2-((3-((trifluoromethyl)sulfonyl)phenyl)carbamoyl)phenyl)benzamide] showed an EC50 with cAMP in THP-1 cells (THP-1, 0.5 h) of 124 nM.

`CCSc1ccccc1C(=O)Nc1ccccc1C(=O)Nc1cccc(S(=O)(=O)C(F)(F)F)c1` [Example 176]: the Emax at RXFP1 (setting [2]) was determined as 95%.

As to `COc1ccccc1C(=O)Nc1ccccc1C(=O)Nc1cccc(SC(F)(F)F)c1` [Compound 158], the EC50 with cAMP in THP-1 cells (setting [4]) is 523 nM.

On to `C#Cc1cccc(NC(=O)c2ccccc2NC(=O)C2CCCCC2)c1` [Example 21], for which the Emax on RXFP1 (setting [2]) is 85%.

Regarding `CCOc1ccccc1C(=O)Nc1ccccc1C(=O)Nc1cncc(I)c1` [Example 165], the AC50 on RXFP1 (setting [5]) worked out at 11.8 µM. Further, the Emax at RXFP1 (setting [2]) was found to be 72%.

`COc1ccccc1C(=O)Nc1ccccc1C(=O)Nc1cccc(S(=O)(=O)C(F)(F)F)c1` [Example 159]: the Emax at RXFP1 (read-out: Max Response) and on RXFP1 (setting [3]) was 99% throughout.

On to `CC(C)Oc1ccccc1C(=O)Nc1ccccc1C(=O)Nc1cccc(S(=O)(=O)C(F)(F)F)c1` [Example 178, 2-Isopropoxy-N-(2-(3-(trifluoromethylsulfonyl)phenylcarbamoyl)phenyl)benzamide], for which the EC50 in the data set with cAMP in THP-1 cells (setting [4]) amounted to 200 nM.

In turn, `O=C(Nc1cccc(S(=O)(=O)C(F)(F)F)c1)c1ccccc1NC(=O)c1ccccc1OCC(F)(F)F` [Example 177, 2-(2,2,2-Trifluoroethoxy)-N-(2-((3-((trifluoromethyl)sulfonyl)phenyl)carbamoyl)phenyl)benzamide] registered a concentration giving a half-maximal response (EC50) with cAMP in THP-1 cells (THP-1, 0.5 h) of 107 nM.
